Columns and labels:
Conditions in all cases: 48 h
NOMO1 [1] = assay: AUC of viability dose-response curve (% viability x log10 dose units); higher = less sensitive
How it was run: (§1)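 Viability of medium-adapted leukemia cells was measured by CellTiter-Glo One luminescence after 48 h at 37°C with library compounds in DMSO. Doses were 11 threefold steps from 47 μM to 0.79 nM, in 1536-well plates at 500 or 1000 cells/well. Signals were normalised per plate to DMSO and cell-free wells and fitted with a four-parameter log-logistic model on log10 dose. Area under the curve was integrated by trapezoidal rule, with curves exceeding full viability scaled and failed quality-control curves removed.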

P12-Ichikawa [2] = assay: as above
How it was run: as §1

SEM cells [3] = assay: as above
How it was run: as §1

NOMO1 [4] = assay: cell viability relative to DMSO control; higher = less cytotoxic
How it was run: (§2)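 Library compounds in DMSO were pin-dosed in an 11-point threefold series (47 μM to 0.79 nM) onto leukemia cells in 1536-well plates (5 μl). Plates held 500 cells/well of NOMO1 or SEM or 1000 cells/well of P12-Ichikawa, each adapted for at least four passages in each medium. Luminescence was read with CellTiter-Glo One after 48 h at 37°C. Viability means the per-plate percentage relative to DMSO wells, using cell-free wells as background.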

P12-Ichikawa [5] = assay: as above
How it was run: as §2

SEM cells [6] = assay: as above
How it was run: as §2

O=C1\C=C/C=C2/[C@H]3CNC[C@H](C3)CN12
AUC of viability dose-response curve
Conditions	NOMO1 [1]	P12-Ichikawa [2]	SEM cells [3]
HPLM + 10% dialyzed FBS	447	457	462
RPMI 5 mM glucose + 10% FBS	458	459	466
RPMI 5 mM glucose + 10% dialyzed FBS	464	459	456

cell viability [%]
Conditions	NOMO1 [4]	P12-Ichikawa [5]	SEM cells [6]
HPLM + 10% dialyzed FBS, 0.000781 µM	112	108	97.4
HPLM + 10% dialyzed FBS, 0.00234 µM	125	109	95.2
HPLM + 10% dialyzed FBS, 0.00702 µM	120	115	103
HPLM + 10% dialyzed FBS, 0.0211 µM	111	109	108
HPLM + 10% dialyzed FBS, 0.0632 µM	133	122	101
HPLM + 10% dialyzed FBS, 0.19 µM	126	122	106
HPLM + 10% dialyzed FBS, 0.569 µM	130	125	114
HPLM + 10% dialyzed FBS, 1.71 µM	129	123	104
HPLM + 10% dialyzed FBS, 5.12 µM	116	116	102
HPLM + 10% dialyzed FBS, 15.4 µM	97.9	97.5	112
HPLM + 10% dialyzed FBS, 46.1 µM	27.7	58.3	103
RPMI 5 mM glucose + 10% FBS, 0.000781 µM	105	116	101
RPMI 5 mM glucose + 10% FBS, 0.00234 µM	107	111	104
RPMI 5 mM glucose + 10% FBS, 0.00702 µM	124	120	102
RPMI 5 mM glucose + 10% FBS, 0.0211 µM	107	129	113
RPMI 5 mM glucose + 10% FBS, 0.0632 µM	110	122	123
RPMI 5 mM glucose + 10% FBS, 0.19 µM	120	125	114
RPMI 5 mM glucose + 10% FBS, 0.569 µM	112	124	103
RPMI 5 mM glucose + 10% FBS, 1.71 µM	123	132	127
RPMI 5 mM glucose + 10% FBS, 5.12 µM	111	113	113
RPMI 5 mM glucose + 10% FBS, 15.4 µM	100	112	112
RPMI 5 mM glucose + 10% FBS, 46.1 µM	46.9	54.8	61.2
RPMI 5 mM glucose + 10% dialyzed FBS, 0.000781 µM	96.7	111	108
RPMI 5 mM glucose + 10% dialyzed FBS, 0.00234 µM	98.4	109	76.6
RPMI 5 mM glucose + 10% dialyzed FBS, 0.00702 µM	107	110	101
RPMI 5 mM glucose + 10% dialyzed FBS, 0.0211 µM	109	108	118
RPMI 5 mM glucose + 10% dialyzed FBS, 0.0632 µM	119	121	112
RPMI 5 mM glucose + 10% dialyzed FBS, 0.19 µM	118	120	123
RPMI 5 mM glucose + 10% dialyzed FBS, 0.569 µM	122	132	120
RPMI 5 mM glucose + 10% dialyzed FBS, 1.71 µM	112	126	119
RPMI 5 mM glucose + 10% dialyzed FBS, 5.12 µM	102	118	126
RPMI 5 mM glucose + 10% dialyzed FBS, 15.4 µM	104	99.9	103
RPMI 5 mM glucose + 10% dialyzed FBS, 46.1 µM	64.2	67.7	113

CC(NC(C)(C)C)C(=O)c1cccc(Cl)c1 (stereo unspecified)
AUC of viability dose-response curve
Conditions	NOMO1 [1]	P12-Ichikawa [2]	SEM cells [3]
HPLM + 10% dialyzed FBS	448	470	444
RPMI 5 mM glucose + 10% FBS	476	473	433
RPMI 5 mM glucose + 10% dialyzed FBS	456	472	436

cell viability [%]
Conditions	NOMO1 [4]	P12-Ichikawa [5]	SEM cells [6]
HPLM + 10% dialyzed FBS, 0.000781 µM	–	114	94.9
HPLM + 10% dialyzed FBS, 0.00234 µM	–	113	120
HPLM + 10% dialyzed FBS, 0.00702 µM	–	117	102
HPLM + 10% dialyzed FBS, 0.0211 µM	–	118	100
HPLM + 10% dialyzed FBS, 0.0632 µM	–	117	109
HPLM + 10% dialyzed FBS, 0.19 µM	–	111	104
HPLM + 10% dialyzed FBS, 0.569 µM	–	120	108
HPLM + 10% dialyzed FBS, 1.71 µM	–	124	64.6
HPLM + 10% dialyzed FBS, 5.12 µM	–	122	127
HPLM + 10% dialyzed FBS, 15.4 µM	–	115	46
HPLM + 10% dialyzed FBS, 46.1 µM	–	115	103
RPMI 5 mM glucose + 10% FBS, 0.000781 µM	112	–	106
RPMI 5 mM glucose + 10% FBS, 0.00234 µM	124	–	123
RPMI 5 mM glucose + 10% FBS, 0.00702 µM	115	–	117
RPMI 5 mM glucose + 10% FBS, 0.0211 µM	120	–	108
RPMI 5 mM glucose + 10% FBS, 0.0632 µM	133	–	114
RPMI 5 mM glucose + 10% FBS, 0.19 µM	127	–	119
RPMI 5 mM glucose + 10% FBS, 0.569 µM	113	–	127
RPMI 5 mM glucose + 10% FBS, 1.71 µM	115	–	73.2
RPMI 5 mM glucose + 10% FBS, 5.12 µM	119	–	125
RPMI 5 mM glucose + 10% FBS, 15.4 µM	128	–	23.1
RPMI 5 mM glucose + 10% FBS, 46.1 µM	113	–	98.9
RPMI 5 mM glucose + 10% dialyzed FBS, 0.000781 µM	–	114	99.9
RPMI 5 mM glucose + 10% dialyzed FBS, 0.00234 µM	–	127	128
RPMI 5 mM glucose + 10% dialyzed FBS, 0.00702 µM	–	119	123
RPMI 5 mM glucose + 10% dialyzed FBS, 0.0211 µM	–	123	112
RPMI 5 mM glucose + 10% dialyzed FBS, 0.0632 µM	–	123	117
RPMI 5 mM glucose + 10% dialyzed FBS, 0.19 µM	–	128	140
RPMI 5 mM glucose + 10% dialyzed FBS, 0.569 µM	–	125	139
RPMI 5 mM glucose + 10% dialyzed FBS, 1.71 µM	–	124	71.9
RPMI 5 mM glucose + 10% dialyzed FBS, 5.12 µM	–	121	135
RPMI 5 mM glucose + 10% dialyzed FBS, 15.4 µM	–	118	35.7
RPMI 5 mM glucose + 10% dialyzed FBS, 46.1 µM	–	108	126

CC1(CN2CCC(n3c(=O)[nH]c4ccccc43)CC2)OCc2ccccc2-n2cccc21 (stereo unspecified)
AUC of viability dose-response curve
Conditions	NOMO1 [1]	P12-Ichikawa [2]	SEM cells [3]
HPLM + 10% dialyzed FBS	397	470	455
RPMI 5 mM glucose + 10% FBS	452	469	449
RPMI 5 mM glucose + 10% dialyzed FBS	438	458	470

cell viability [%]
Conditions	NOMO1 [4]	P12-Ichikawa [5]	SEM cells [6]
HPLM + 10% dialyzed FBS, 0.000781 µM	128	99.7	102
HPLM + 10% dialyzed FBS, 0.00234 µM	108	97.6	109
HPLM + 10% dialyzed FBS, 0.00702 µM	102	105	111
HPLM + 10% dialyzed FBS, 0.0211 µM	105	98.7	100
HPLM + 10% dialyzed FBS, 0.0632 µM	96.8	102	103
HPLM + 10% dialyzed FBS, 0.19 µM	105	104	100
HPLM + 10% dialyzed FBS, 0.569 µM	104	94.4	107
HPLM + 10% dialyzed FBS, 1.71 µM	108	99.9	105
HPLM + 10% dialyzed FBS, 5.12 µM	102	99	106
HPLM + 10% dialyzed FBS, 15.4 µM	59.3	99.6	68.1
HPLM + 10% dialyzed FBS, 46.1 µM	75.6	92.8	76.9
RPMI 5 mM glucose + 10% FBS, 0.000781 µM	86.7	96	88.6
RPMI 5 mM glucose + 10% FBS, 0.00234 µM	103	99.9	90.5
RPMI 5 mM glucose + 10% FBS, 0.00702 µM	95.4	93.1	89
RPMI 5 mM glucose + 10% FBS, 0.0211 µM	91.4	94.8	111
RPMI 5 mM glucose + 10% FBS, 0.0632 µM	104	98.3	106
RPMI 5 mM glucose + 10% FBS, 0.19 µM	107	98.5	95
RPMI 5 mM glucose + 10% FBS, 0.569 µM	91.3	106	103
RPMI 5 mM glucose + 10% FBS, 1.71 µM	96	109	100
RPMI 5 mM glucose + 10% FBS, 5.12 µM	92.5	102	94.8
RPMI 5 mM glucose + 10% FBS, 15.4 µM	87.8	96.8	79.3
RPMI 5 mM glucose + 10% FBS, 46.1 µM	84	87.9	66.8
RPMI 5 mM glucose + 10% dialyzed FBS, 0.000781 µM	105	94	106
RPMI 5 mM glucose + 10% dialyzed FBS, 0.00234 µM	111	92.5	81.4
RPMI 5 mM glucose + 10% dialyzed FBS, 0.00702 µM	103	96.4	97.6
RPMI 5 mM glucose + 10% dialyzed FBS, 0.0211 µM	93.2	97.2	105
RPMI 5 mM glucose + 10% dialyzed FBS, 0.0632 µM	96.7	97.7	113
RPMI 5 mM glucose + 10% dialyzed FBS, 0.19 µM	98.2	99.2	94
RPMI 5 mM glucose + 10% dialyzed FBS, 0.569 µM	95.9	94	121
RPMI 5 mM glucose + 10% dialyzed FBS, 1.71 µM	92.4	93.8	99.2
RPMI 5 mM glucose + 10% dialyzed FBS, 5.12 µM	90.9	98.7	105
RPMI 5 mM glucose + 10% dialyzed FBS, 15.4 µM	79.5	94.3	79.6
RPMI 5 mM glucose + 10% dialyzed FBS, 46.1 µM	68.5	98.5	96.9
